*1 amine or outer side, *2 acyl side, *3 side chain or, on linkers, in order; H or OH if unused. Where a SMILES comes first, the peptide text is derived from it. Bridges are numbered along the chain shown (N, C = ends). Side-chain parts run from the residue outwards. [ ]: non-standard residue; d: D form. The star is where a group is joined. X18 = O=C(CCN(CC(=O)[*:2])[*:1])NC[C@H](O)[C@@H](O)[C@H](O)[C@H](O)CO; NH(1-deoxy-D-glucityl) = OC[C@@H](O)[C@@H](O)[C@H](O)[C@@H](O)CN*; Pro(trans-4-NH2) = O=C([C@@H]1C[C@@H](N[*:3])CN1[*:1])[*:2]; Trp(5-Cl) = N[C@@H](Cc1c[nH]c2ccc(Cl)cc12)C(=O)O; Pyridine(2,6-diCH2) = c1cc(C[*:1])nc(C[*:2])c1; Pro(trans-4-F) = O=C(O)[C@@H]1C[C@@H](F)CN1; X24 = OC[C@H](CSCc1cccc(C[*:1])n1)N[*:2]; Glutaryl = O=C(CCCC(=O)[*:2])[*:1]; Cya = N[C@@H](CS(=O)(=O)O)C(=O)O; Hyp = O=C(O)[C@@H]1C[C@@H](O)CN1; X1 = O=C(CN1CCC(N[*:1])CC1)[*:2]; Nphe = O=C(O)CNCc1ccccc1; Thp = NC1(C(=O)O)CCOCC1; Nleu = CC(C)CNCC(=O)O; Nlys = NCCCCNCC(=O)O; Sar = CNCC(=O)O

The assay concerns the target T1, GIPR (CHO-K1-hGIPR cells) (Homo sapiens, UniProt P48546).
T1 construct: host or cells: CHO-K1
T1 sequence (P48546 22-466): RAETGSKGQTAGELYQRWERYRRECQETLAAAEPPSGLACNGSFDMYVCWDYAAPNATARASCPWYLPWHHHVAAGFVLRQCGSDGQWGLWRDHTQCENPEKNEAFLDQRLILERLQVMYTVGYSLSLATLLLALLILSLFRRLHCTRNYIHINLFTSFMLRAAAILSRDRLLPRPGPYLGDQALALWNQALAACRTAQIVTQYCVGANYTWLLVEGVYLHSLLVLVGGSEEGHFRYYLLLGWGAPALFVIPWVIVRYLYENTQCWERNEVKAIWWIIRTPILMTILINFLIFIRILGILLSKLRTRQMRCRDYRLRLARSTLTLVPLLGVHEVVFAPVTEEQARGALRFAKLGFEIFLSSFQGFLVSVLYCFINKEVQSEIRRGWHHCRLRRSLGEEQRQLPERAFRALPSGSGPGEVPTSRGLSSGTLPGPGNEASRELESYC
Briefly: FACS binding assay. The settings on record: competition with 20 nM GIP-057, 4° C., 1 hour, read-out: pIC50 Category (converted). The gist of the method: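 Read-out: flow cytometric median fluorescence intensity, APC/Cy5 channel, plotted vs peptide conc.; 4PL fit → EC50/pEC50 or IC50/pIC50. Cells: CHO-K1-hGIPR, Accutase-detached, 500.000/mL in PBS + 1% FCS. Detection: APC-streptavidin 1 μg/mL, 30 min, on ice.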

`CC[C@H](C)[C@@H]1NC(=O)[C@H](CC(C)C)NC(=O)C2(CCOCC2)NC(=O)[C@@H](NC(=O)[C@@H](CC(C)C)NC(=O)[C@H](CCC(=O)O)NC(=O)[C@@H]2C[C@@H](NC(=O)CCCC(=O)NC[C@H](O)[C@@H](O)[C@H](O)[C@H](O)CO)CN2C(=O)[C@H](Cc2c[nH]c3ccc(Cl)cc23)NC(=O)[C@H](Cc2c[nH]c3ccccc23)NC(=O)[C@H](CC(=O)O)NC(C)=O)CSCc2cccc(n2)CSC[C@@H](C(N)=O)NC1=O` [GIP-175, Ac-Asp-Trp-5Clw-Tap (AGLU-Glutar)-Glu-leu-[Cys(2Lut)-Thp-Leu-Ile-Cys]-NH2] (Ac-DW[Trp(5-Cl)][Pro(trans-4-NH2)]([Glutaryl-NH(1-deoxy-D-glucityl)])E[dL]C[Thp]LIC-NH2; linker 7-11 via Pyridine(2,6-diCH2)): the IC50 is below 10 nM.
On to `CC[C@H](C)[C@@H]1NC(=O)[C@H](CC(C)C)NC(=O)C2(CCOCC2)NC(=O)[C@@H](NC(=O)[C@@H](CC(C)C)NC(=O)[C@H](CCC(=O)O)NC(=O)CN(CCC(=O)NC[C@H](O)[C@@H](O)[C@H](O)[C@H](O)CO)C(=O)[C@H](Cc2c[nH]c3ccc(Cl)cc23)NC(=O)[C@H](Cc2c[nH]c3ccccc23)NC(=O)[C@H](CC(=O)O)NC(C)=O)CSCc2cccc(n2)CSC[C@@H](C(N)=O)NC1=O` [GIP-176, Ac-Asp-Trp-5Clw-Nglu(AGLU)-Glu-leu-[Cys(2Lut)-Thp-Leu-Ile-Cys]-NH2] (Ac-DW[Trp(5-Cl)][X18]E[dL]C[Thp]LIC-NH2; linker 7-11 via Pyridine(2,6-diCH2)), for which the IC50 is below 10 nM.
In the case of `CC[C@H](C)[C@@H]1NC(=O)[C@H](CC(C)C)NC(=O)C2(CCOCC2)NC(=O)[C@@H](NC(=O)[C@@H](CC(C)C)NC(=O)[C@H](CCC(=O)O)NC(=O)[C@@H]2C[C@@H](O)CN2C(=O)[C@H](Cc2c[nH]c3ccc(Cl)cc23)NC(=O)[C@H](Cc2c[nH]c3ccccc23)NC(=O)[C@H](CC(=O)O)NC(C)=O)CSCc2cccc(n2)CSC[C@@H](C(=O)NC2CCN(CC(=O)N[C@H](CCC(=O)NC[C@H](O)[C@@H](O)[C@H](O)[C@H](O)CO)C(N)=O)CC2)NC1=O` [GIP-177, Ac-Asp-Trp-5Clw-Hyp-Glu-leu-[Cys(2Lut)-Thp-Leu-Ile-Cys]-APAc-glu(AGLU)-NH2] (Ac-DW[Trp(5-Cl)][Hyp]E[dL]C[Thp]LIC[X1][dE](NH(1-deoxy-D-glucityl))-NH2; linker 7-11 via Pyridine(2,6-diCH2)) it was below 10 nM; in that of `CC[C@H](C)[C@@H]1NC(=O)[C@H](CC(C)C)NC(=O)C2(CCOCC2)NC(=O)[C@@H](NC(=O)[C@@H](CC(C)C)NC(=O)[C@H](CCC(=O)O)NC(=O)[C@@H]2C[C@@H](O)CN2C(=O)[C@H](Cc2c[nH]c3ccc(Cl)cc23)NC(=O)[C@H](Cc2c[nH]c3ccccc23)NC(=O)[C@H](CC(=O)O)NC(=O)CCCC(=O)NC[C@H](O)[C@@H](O)[C@H](O)[C@H](O)CO)CSCc2cccc(n2)CSC[C@@H](C(N)=O)NC1=O` [GIP-178, AGLU-Glutar-Asp-Trp-5Clw-Hyp-Glu-leu-[Cys(2Lut)-Thp-Leu-Ile-Cys]-NH2] ({NH(1-deoxy-D-glucityl)-Glutaryl}-DW[Trp(5-Cl)][Hyp]E[dL]C[Thp]LIC-NH2; linker 7-11 via Pyridine(2,6-diCH2)), below 10 nM; in that of `CC[C@H](C)[C@@H]1NC(=O)[C@H](CC(C)C)NC(=O)C2(CCOCC2)NC(=O)[C@@H](NC(=O)[C@@H](CC(C)C)NC(=O)[C@H](CCC(=O)O)NC(=O)[C@@H]2C[C@@H](O)CN2C(=O)[C@H](Cc2c[nH]c3ccc(Cl)cc23)NC(=O)[C@H](Cc2c[nH]c3ccccc23)NC(=O)[C@H](CC(=O)O)NC(C)=O)CSCc2cccc(n2)CSC[C@@H](C(N)=O)NC1=O` [GIP-180, Ac-Asp-Trp-5Clw-Hyp-Glu-leu-[Cys(2Lut)-Thp-Leu-Ile-Cys]-NH2] (Ac-DW[Trp(5-Cl)][Hyp]E[dL]C[Thp]LIC-NH2; linker 7-11 via Pyridine(2,6-diCH2)), below 10 nM.
As to `CC[C@H](C)[C@@H]1NC(=O)[C@H](CC(C)C)NC(=O)C2(CCOCC2)NC(=O)[C@@H](NC(=O)[C@@H](CC(C)C)NC(=O)[C@H](CCC(=O)O)NC(=O)[C@@H]2C[C@@H](O)CN2C(=O)[C@H](Cc2c[nH]c3ccc(Cl)cc23)NC(=O)[C@H](Cc2c[nH]c3ccccc23)NC(=O)[C@H](CC(=O)O)NC(C)=O)CSCc2cccc(n2)CSC[C@@H](CO)NC1=O` [GIP-182, Ac-Asp-Trp-5Clw-Hyp-Glu-leu-[Cys(2Lut)-Thp-Leu-Ile-Cysol]-OH] (Ac-DW[Trp(5-Cl)][Hyp]E[dL]C[Thp]LI; linker 7-C via X24), the IC50 was below 10 nM.
For the compound `CC[C@H](C)[C@@H]1NC(=O)[C@H](CC(C)C)NC(=O)C2(CCOCC2)NC(=O)[C@@H](NC(=O)[C@@H](CC(C)C)NC(=O)[C@H](CCC(=O)O)NC(=O)CN(C)C(=O)[C@H](Cc2c[nH]c3ccc(Cl)cc23)NC(=O)[C@H](Cc2c[nH]c3ccccc23)NC(=O)[C@H](CC(=O)O)NC(C)=O)CSCc2cccc(n2)CSC[C@@H](C(N)=O)NC1=O` [GIP-183, Ac-Asp-Trp-5Clw-Nmg-Glu-leu-[Cys(2Lut)-Thp-Leu-Ile-Cys]-NH2] (Ac-DW[Trp(5-Cl)][Sar]E[dL]C[Thp]LIC-NH2; linker 7-11 via Pyridine(2,6-diCH2)), the IC50 was below 10 nM.
On to `CC[C@H](C)[C@@H]1NC(=O)[C@H](CC(C)C)NC(=O)C2(CCOCC2)NC(=O)[C@@H](NC(=O)[C@@H](CC(C)C)NC(=O)[C@H](CCC(=O)O)NC(=O)CN(CC(C)C)C(=O)[C@H](Cc2c[nH]c3ccc(Cl)cc23)NC(=O)[C@H](Cc2c[nH]c3ccccc23)NC(=O)[C@H](CC(=O)O)NC(C)=O)CSCc2cccc(n2)CSC[C@@H](C(N)=O)NC1=O` [GIP-184, Ac-Asp-Trp-5Clw-Nleu-Glu-leu-[Cys(2Lut)-Thp-Leu-Ile-Cys]-NH2] (Ac-DW[Trp(5-Cl)][Nleu]E[dL]C[Thp]LIC-NH2; linker 7-11 via Pyridine(2,6-diCH2)), for which the IC50 is below 10 nM.
Consider `CC[C@H](C)[C@@H]1NC(=O)[C@H](CC(C)C)NC(=O)C2(CCOCC2)NC(=O)[C@@H](NC(=O)[C@@H](CC(C)C)NC(=O)[C@H](CCC(=O)O)NC(=O)CN(Cc2ccccc2)C(=O)[C@H](Cc2c[nH]c3ccc(Cl)cc23)NC(=O)[C@H](Cc2c[nH]c3ccccc23)NC(=O)[C@H](CC(=O)O)NC(C)=O)CSCc2cccc(n2)CSC[C@@H](C(N)=O)NC1=O` [GIP-185, Ac-Asp-Trp-5Clw-Nphe-Glu-leu-[Cys(2Lut)-Thp-Leu-Ile-Cys]-NH2] (Ac-DW[Trp(5-Cl)][Nphe]E[dL]C[Thp]LIC-NH2; linker 7-11 via Pyridine(2,6-diCH2)), for which the IC50 was below 10 nM.
For `CC[C@H](C)[C@@H]1NC(=O)[C@H](CC(C)C)NC(=O)C2(CCOCC2)NC(=O)[C@@H](NC(=O)[C@@H](CC(C)C)NC(=O)[C@H](CCC(=O)O)NC(=O)CN(CCCCN)C(=O)[C@H](Cc2c[nH]c3ccc(Cl)cc23)NC(=O)[C@H](Cc2c[nH]c3ccccc23)NC(=O)[C@H](CC(=O)O)NC(C)=O)CSCc2cccc(n2)CSC[C@@H](C(N)=O)NC1=O` [GIP-186, Ac-Asp-Trp-5Clw-Nlys-Glu-leu-[Cys(2Lut)-Thp-Leu-Ile-Cys]-NH2] (Ac-DW[Trp(5-Cl)][Nlys]E[dL]C[Thp]LIC-NH2; linker 7-11 via Pyridine(2,6-diCH2)), the IC50 is below 10 nM.
As for `CC[C@H](C)[C@@H]1NC(=O)[C@H](CC(C)C)NC(=O)C2(CCOCC2)NC(=O)[C@@H](NC(=O)[C@@H](CC(C)C)NC(=O)[C@H](CCC(=O)O)NC(=O)[C@@H]2C[C@@H](F)CN2C(=O)[C@H](Cc2c[nH]c3ccc(Cl)cc23)NC(=O)[C@H](Cc2c[nH]c3ccccc23)NC(=O)[C@H](CC(=O)O)NC(C)=O)CSCc2cccc(n2)CSC[C@@H](C(N)=O)NC1=O` [GIP-187, Ac-Asp-Trp-5Clw-4Tfp-Glu-leu-[Cys(2Lut)-Thp-Leu-Ile-Cys]-NH2] (Ac-DW[Trp(5-Cl)][Pro(trans-4-F)]E[dL]C[Thp]LIC-NH2; linker 7-11 via Pyridine(2,6-diCH2)), the IC50 is below 10 nM.
Turning to `CC[C@H](C)[C@@H]1NC(=O)[C@H](CC(C)C)NC(=O)C2(CCOCC2)NC(=O)[C@@H](NC(=O)[C@@H](CC(C)C)NC(=O)[C@H](CCC(=O)O)NC(=O)[C@@H]2C[C@@H](O)CN2C(=O)[C@H](Cc2c[nH]c3ccc(Cl)cc23)NC(=O)[C@H](Cc2c[nH]c3ccccc23)NC(=O)[C@H](CS(=O)(=O)O)NC(C)=O)CSCc2cccc(n2)CSC[C@@H](C(N)=O)NC1=O` [GIP-189, Ac-Cya-Trp-5Clw-Hyp-Glu-leu-[Cys(2Lut)-Thp-Leu-Ile-Cys]-NH2] (Ac-[Cya]W[Trp(5-Cl)][Hyp]E[dL]C[Thp]LIC-NH2; linker 7-11 via Pyridine(2,6-diCH2)), the IC50 is below 10 nM.
In the case of `CC[C@H](C)[C@@H]1NC(=O)[C@H](CC(C)C)NC(=O)C2(CCOCC2)NC(=O)[C@@H](NC(=O)[C@@H](CC(C)C)NC(=O)[C@H](CCC(=O)O)NC(=O)[C@@H]2C[C@@H](O)CN2C(=O)[C@H](Cc2c[nH]c3ccc(Cl)cc23)NC(=O)[C@H](Cc2c[nH]c3ccccc23)NC(=O)[C@H](CC(N)=O)NC(C)=O)CSCc2cccc(n2)CSC[C@@H](C(N)=O)NC1=O` [GIP-190, Ac-Asn-Trp-5Clw-Hyp-Glu-leu-[Cys(2Lut)-Thp-Leu-Ile-Cys]-NH2] (Ac-NW[Trp(5-Cl)][Hyp]E[dL]C[Thp]LIC-NH2; linker 7-11 via Pyridine(2,6-diCH2)), the IC50 was below 10 nM.

For the origin of these results see patent US20250296971A1, “GASTRIC INHIBITORY PEPTIDE RECEPTOR LIGANDS” (priority 2021, published 2025).
